“And” between values parts separate entries of the source, which are not always exact repeats. Identical values can stand only once.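 Five compound concentrations were applied to cells in 96-well plates for 48 hours; endpoints were derived by simple linear interpolation of the resulting dose-response curve. GI50 marks 50% less growth. TGI denotes the concentration required for complete inhibition of growth.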
How the values were obtained:
Test in all cases: NCI-60 cell line screen, 48 h
[1] = test system: HCT-116 colon
[2] = test system: SF-539 CNS
[3] = test system: OVCAR-5 ovarian
[4] = test system: A549 NSCLC
[5] = test system: IGROV1 ovarian
[6] = test system: HOP-92 NSCLC
[7] = test system: SK-MEL-28 melanoma
[8] = test system: SK-OV-3 ovarian

CC(=O)OC1C(=O)C(O)C(C)OC1O[C@@H]1C[C@@]2(C)[C@@H]3CC=C4[C@@H](C[C@H](O)C(=O)C4(C)C)[C@]3(C)C(=O)C[C@]2(C)[C@H]1[C@@](C)(O)C(=O)/C=C/C(C)(C)O (stereo not given in full)
TGI [1]: > 10 µM
TGI [2]: 1.97 µM
TGI [3]: > 10 µM
TGI [4]: > 10 µM
TGI [5]: 4.62 µM
TGI [6]: 2.52 µM
TGI [7]: 0.803 µM
TGI [8]: > 9.33 µM

CCCN(CCCCC(NC(C)=O)C(=O)NCc1ccccc1)C(=O)NCCCl (stereo not given)
TGI [1]: > 100 µM
TGI [2]: > 100 µM
TGI [4]: > 100 µM
TGI [6]: > 100 µM
TGI [7]: > 100 µM

Cc1ccc(NC(=O)CC2C(=O)Nc3ccccc3S2=O)cc1C (stereo not given)
TGI [1]: > 100 µM
TGI [2]: 47.5 µM
TGI [3]: > 100 µM
TGI [4]: > 100 µM
TGI [5]: > 100 µM
TGI [6]: 74.2 µM
TGI [7]: > 100 µM

CC1OC(n2ncc(=O)[nH]c2=O)C=CC1=O (stereo not given)
TGI [1]: > 100 µM
TGI [2]: > 100 µM and 47.9 µM
TGI [3]: > 100 µM
TGI [4]: > 100 µM
TGI [5]: > 100 µM
GI50 [6]: 71.1 µM and 32.8 µM
TGI [6]: > 100 µM and 71.9 µM
TGI [7]: 93.8 µM and 46 µM
GI50 [8]: > 100 µM and 29.3 µM
TGI [8]: > 100 µM

CC(CN(CP(=O)([O-])[O-])CP(=O)([O-])[O-])N(CP(=O)([O-])[O-])CP(=O)([O-])[O-].N.N.[Pt+2] (stereo not given)
GI50 [1]: > 100 µM
TGI [1]: > 100 µM
GI50 [2]: > 100 µM
TGI [2]: > 100 µM
GI50 [3]: > 100 µM
TGI [3]: > 100 µM
GI50 [4]: > 100 µM
TGI [4]: > 100 µM
GI50 [5]: > 100 µM
TGI [5]: > 100 µM
GI50 [7]: > 100 µM
TGI [7]: > 100 µM
GI50 [8]: > 100 µM
TGI [8]: > 100 µM

COc1ccc(/C=N/N=C(\N)NO)cc1OC
TGI [1]: > 100 µM
TGI [2]: 64.9 µM
TGI [3]: > 100 µM
TGI [4]: 95.8 µM
TGI [5]: > 100 µM
TGI [6]: > 100 µM
TGI [7]: > 100 µM
TGI [8]: > 100 µM

COc1ccc2[nH]c(-c3ccccn3)cc(=O)c2c1
GI50 [1]: 33.6 µM
TGI [1]: > 100 µM
TGI [2]: 91.9 µM
TGI [3]: > 100 µM
TGI [4]: > 100 µM
TGI [5]: > 100 µM
TGI [6]: > 100 µM
TGI [7]: > 100 µM
TGI [8]: > 100 µM

O=C1NC(=S)NC(=O)C1=Cc1cc2c(cc1[N+](=O)[O-])OCO2
TGI [1]: > 100 µM
TGI [2]: > 100 µM
TGI [4]: > 100 µM
TGI [5]: > 100 µM
TGI [7]: > 100 µM
TGI [8]: > 100 µM

Cc1cccc(-c2nc3c(C(=O)NCCN(C)C)cccc3[nH]2)c1
TGI [1]: 1.55 µM
TGI [2]: 2.04 µM
TGI [3]: 4.14 µM
TGI [4]: 7.7 µM
TGI [5]: 4.06 µM
TGI [6]: 3.46 µM
TGI [7]: 3.46 µM
TGI [8]: 6.07 µM

CC(=O)CCCCCCCCCCCC[C@@H]1CC[C@H](C)[C@H](O)N1
TGI [1]: > 100 µM
TGI [3]: > 100 µM
TGI [4]: > 100 µM
TGI [5]: > 100 µM
TGI [6]: > 100 µM
TGI [7]: > 100 µM
TGI [8]: > 100 µM

CCCCCCCCCCC/C(=N/O)c1ccc(O)c2ncccc12
TGI [1]: 59.9 µM
TGI [2]: 4.91 µM
TGI [3]: 6.66 µM
TGI [4]: 35.8 µM
TGI [6]: 5.47 µM
TGI [7]: > 100 µM

O=C1C(Cl)C(c2cccc(O)c2)N1n1cnc2ccccc2c1=O (stereo not given)
TGI [1]: > 100 µM
TGI [3]: > 100 µM
TGI [4]: > 100 µM
TGI [5]: > 100 µM
TGI [7]: > 100 µM
TGI [8]: > 100 µM

Cc1c(/C=N/NS(=O)(=O)c2ccccc2)no[n+]1[O-]
TGI [1]: > 100 µM
TGI [2]: > 100 µM
TGI [3]: > 100 µM
TGI [4]: > 100 µM
TGI [5]: > 100 µM
TGI [6]: > 100 µM
TGI [7]: > 100 µM
TGI [8]: > 100 µM

[N-]=[N+]=NC(c1cn(C2CC(O)C(CO)O2)c(=O)[nH]c1=O)C(Br)I (stereo not given)
TGI [1]: > 100 µM
TGI [2]: > 100 µM
TGI [3]: > 100 µM
TGI [4]: > 100 µM
TGI [5]: > 100 µM
TGI [6]: > 100 µM
TGI [7]: > 100 µM
TGI [8]: > 100 µM

COc1ccc(C=C2C(=O)OC(C)(C)OC2=O)cc1OC
TGI [3]: > 100 µM
TGI [4]: > 100 µM
TGI [5]: > 100 µM
TGI [7]: > 100 µM
TGI [8]: > 100 µM

Cc1ccccc1-c1c(N)nc(NC#N)nc1C(=O)Nc1ccccc1
TGI [1]: > 100 µM
TGI [2]: > 100 µM
TGI [3]: > 100 µM
TGI [4]: > 100 µM
TGI [5]: > 100 µM
TGI [6]: > 100 µM
TGI [7]: > 100 µM
TGI [8]: > 100 µM

CCN1C2=NC(=O)N(C)C(=O)C2(Cl)C(C(SC)S(=O)(=O)c2ccc(C)cc2)c2ccccc21 (stereo not given)
TGI [1]: 53.6 µM
TGI [2]: > 100 µM
TGI [3]: > 100 µM
TGI [4]: > 100 µM
TGI [5]: > 100 µM
TGI [6]: 71.3 µM
TGI [7]: 67.9 µM
TGI [8]: > 100 µM

[Cl][Bi]([O]c1ccccn1)[O]c1ccccn1
GI50 [1]: > 100 µM
TGI [1]: > 100 µM
GI50 [2]: > 100 µM
TGI [2]: > 100 µM
GI50 [3]: > 100 µM
TGI [3]: > 100 µM
GI50 [4]: > 100 µM
TGI [4]: > 100 µM
GI50 [5]: > 100 µM
TGI [5]: > 100 µM
GI50 [7]: > 100 µM
TGI [7]: > 100 µM
GI50 [8]: > 100 µM
TGI [8]: > 100 µM

From PubChem BioAssay (NCI)
